The text below walks through data of PubChem BioAssay (NCI).

Values joined by “and” are separate entries in the source; they are usually repeats but may differ in a detail not shown here. Identical values can stand only once.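 Where inhibition never reached the appropriate level, the endpoint shown equals the highest concentration tested. Otherwise, values were interpolated linearly from a five-concentration, 48-hour dose response in 96-well plates. GI50 marks 50% less growth. The concentration for full growth arrest is given as TGI.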 Where only a bound is given, the exact number is not on record here.

Holding throughout (experiment): NCI anticancer screen, dose series, 48 h
Test [1] concerns TK-10 renal.
The subject of test [2] is OVCAR-8 ovarian.
In test [3] the test system is OVCAR-4 ovarian.
Test [4] concerns MOLT-4 leukemia.
Test [5] concerns SF-268 CNS.
The test system of test [6] is UO-31 renal.
Test [7] has as its system ACHN renal.
Test [8] has as its system RPMI-8226 leukemia.
In test [9] the test system is M14 melanoma.
Test [10] concerns T-47D breast.

On to `COc1cc2c(c(OC)c1OC)-c1ccc(SC)c(=O)cc1[C@@H](NC(=O)c1ccc(OC(C)=O)cc1)CC2`, for which the GI50 in test [1] was 0.0113 µM; in test [3] it was 10.6 µM. Moreover, the TGI in test [1] was 33.4 µM; in test [2] it was 12.1 µM; in [3], 23.1 µM; in test [4], over 100 µM; in test [5], 24.8 µM; in test [6], 73 µM. In [7], this compound displayed a TGI of over 100 µM.

For the compound `S=c1[nH]c(=S)c2sc(=S)n(-c3ccccc3)c2[nH]1`, the TGI in [8], in test [1], in test [2], in [3], in [4] and in test [9] was over 100 µM in each case. Further, the TGI in [5], in test [6] and in test [7] was over 100 µM in each case.

Turning to `COc1ccc2c([nH]c3cc(O)c(C)cc32)c1C=O`, the TGI in test [8], in [1], in test [2], in test [3], in test [4] and in [9] was over 25 µM in each case. Moreover, the TGI in test [5], in test [6] and in test [7] was over 25 µM throughout.

Consider `COC(=O)/C=C(C)/C=C/c1cc(C(C)=O)c(C)o1`, for which the TGI in test [8], in [2], in test [3], in test [4], in test [9] and in [5] was over 100 µM in each case. The TGI in test [6] and in test [7] was over 100 µM throughout.

On to `COC1/C=C\C=C(/C)C(=O)Nc2cc3nc4ccc(Br)cc4oc-3c(c2=O)CC(C)CC(OC)C(O)C(C)/C=C(\C)C1OC(N)=O` (stereo unspecified), for which the GI50 in test [8] was 0.00867 µM; in test [1], 0.00681 µM; in [4], 0.0031 µM; in test [9] it was 0.00414 µM; in test [7], 0.00459 µM. Also, the TGI in [8] came to 16 µM; in test [1], 17.6 µM; in test [2] it was 14.5 µM; in test [3] it was 3.97 µM; in [4], 0.466 µM; in test [9] it was 5.33 µM. In addition, the TGI in test [5] was 18.1 µM; in test [6], 4.05 µM; in [7], 15.6 µM.

Take `CCCCCCCCCCC(C)CCCCCCC(=O)OCC(COP(=O)([O-])OCC[N+](C)(C)C)OC(=O)CCCCCCC(C)CCCCCCCCCC` (stereo unspecified): the TGI in [8], in test [1], in test [2], in test [3], in test [4] and in test [9] was over 100 µM each time. Moreover, the TGI in test [5], in [6] and in [7] was over 100 µM throughout.

On to `CCOC(=O)/C(=C\c1ccc(OCc2ccccc2)c(OC)c1)C(=O)c1ccccc1`, for which the TGI in [8] is 86.5 µM; in test [1], 61 µM; in test [2] it was over 10 µM; in test [3] it was over 100 µM; in test [4] it was 43.6 µM; in [9] it was 30.5 µM. Moreover, the TGI in [6] came to 32.4 µM; in test [7], 34.8 µM.

On to `Cc1nc2c(=O)[nH]c(=O)n(C)c2[nH]c1=O`, for which the TGI in test [8], in test [1], in [2], in [3], in test [4] and in [9] was over 100 µM each time. Further, the TGI in test [5], in [6] and in test [7] was over 100 µM each time.

For the compound `COC(=O)NC/C=C\c1nc(CC/C=C\C(=O)OC2CC3CC(=O)O[C@H](/C=C/CC(C)C)C[C@H]4CCC(C)C(C[C@H](OC)CC(C2)O3)O4)co1` (stereo partly specified), the GI50 in test [1] was 1.55 µM; in test [2] it was over 100 µM; in test [10], 39.1 µM; in test [3], 23.4 µM; in [9], 4.27 µM; in [5] it was under 0.01 µM. Moreover, the GI50 in test [6] was 25.4 µM. Also, the TGI in test [1] was 74 µM; in test [2] it was over 100 µM; in test [10] it was over 100 µM; in [3], over 100 µM; in test [9], over 100 µM; in test [5] it was 24.3 µM. The TGI in test [6] is over 100 µM.

Consider `CC(=O)NC1=C(Nc2ccc(C)cc2)C(=O)c2ccccc2C1=O`, for which the TGI in test [8] was 31.6 µM; in test [1] it was over 75 µM; in test [2], over 75 µM; in test [3], 46.8 µM; in test [4], 56.5 µM; in test [9] it was 25.3 µM. For the same compound, the TGI is over 75 µM in test [5], over 75 µM in test [6] and 47.5 µM in [7].

Take `c1nc2cscc2c2cscc12`: the TGI in test [8], in test [1], in test [2], in test [3], in test [4] and in test [9] was over 100 µM throughout. The TGI in test [5], in test [6] and in test [7] was over 100 µM throughout.

Consider `CC1Cc2c(N)nc(NN)nc2NC1=O` (stereo unspecified), for which the TGI in test [8], in [1], in test [2], in [4], in test [9] and in [6] was over 100 µM throughout. This compound also gave a TGI in [7] of over 100 µM.

With `[N-]=[N+]=NC1=NNC2(C(=O)N1)c1ccccc1-c1ccccc12`, the TGI in [1], in [2], in test [3], in test [9], in test [5] and in [6] was over 100 µM throughout. The same compound had a TGI in test [7] of over 100 µM.

For the compound `C=CC[C@H]1C[C@@]2(C)OC[C@H](C(C)C)N2C1=O`, the TGI in test [8], in test [1], in test [2], in test [3], in [5] and in [7] was over 100 µM each time.

For `Cc1cccc(C)c1NC(=O)CCCC(=O)CC(=O)/C=C/c1ccccc1`, the TGI in test [8], in [1], in test [2], in [3], in test [4] and in test [9] was over 100 µM each time. Besides, the TGI in [5], in test [6] and in [7] was over 100 µM throughout.

For `CC(=O)[CH-]C(=O)c1ccccc1.CC(=O)[CH-]C(=O)c1ccccc1.CC(=O)[CH-]C(=O)c1ccccc1.[Tl+3]`, the GI50 in [8] is 11.1 µM; in test [1] it was over 59.2 µM; in [2], 59.3 µM; in test [3] it was 26.1 µM; in test [4], 18.8 µM; in [9], 24.7 µM. In addition, the GI50 in [5] is 29.3 µM; in test [6] it was 30.2 µM; in test [7] it was 51.1 µM. The TGI in test [8] was over 100 µM; in [1] it was over 100 µM; in test [2] it was over 100 µM; in test [3] it was over 100 µM; in [4] it was over 69.4 µM; in [9] it was over 93 µM. Also, the TGI in test [5], in test [6] and in [7] was over 100 µM in each case.

For the compound `Cc1cc(O)c(C(=O)CC2(O)C(=O)Nc3c(Cl)cc(Cl)cc32)c(=O)o1` (stereo unspecified), the TGI in test [8], in test [1], in test [2], in test [3], in test [4] and in test [9] was over 100 µM each time. Besides, the TGI in test [5], in test [6] and in test [7] was over 100 µM each time.

As for `N/N=C(\CC1OC(=O)c2ccccc21)c1ccco1` (stereo unspecified), the TGI in test [1], in [3], in test [4], in [9], in test [5] and in [6] was over 100 µM in each case. For the same compound, in test [7], the TGI is over 100 µM.

As to `CC(=O)OCC1OC(OC2CC3C(C)(C)C(OC(C)=O)CC[C@]3(C)C3CCC45CC4(CC[C@H]5C(C)CC(O)[C@@H](O)C(C)(C)O)[C@]23C)C(O)C(O)C1O` (stereo partly specified), the GI50 in test [8] was 2.09 µM; in test [1], 13.6 µM; in test [2] it was 8.43 µM; in test [3], 13.4 µM; in [4] it was 0.0045 µM; in test [9], 4.97 µM. Further, the GI50 is 15.4 µM in [5], 18.5 µM in [6] and 15 µM in test [7]. Besides, the TGI is 6.74 µM and 11.6 µM in test [8]; 14 µM and 26.5 µM in test [1]; 13.9 µM and 22.5 µM in test [2]; 12.7 µM and 26.1 µM in test [3]; 45 µM and 10.5 µM in [4]; 13.1 µM and 16.6 µM in [9]. Also, the TGI in test [5] was 14.6 µM and 28.8 µM; in test [6], 12.3 µM and 32.5 µM; in test [7], 14.3 µM and 29 µM.

On to `Clc1ccc(-n2nnc(C3=NCCCN3)c2-c2ccccc2)cc1`, for which the TGI in [8], in [1], in [2], in [3], in test [4] and in test [9] was over 100 µM throughout. In addition, the TGI in test [5], in [6] and in test [7] was over 100 µM each time.

With `O=[N+]([O-])c1ccc(Sc2c3ccccc3nc3ccccc23)cc1`, the TGI in [8], in test [2], in test [3], in test [4], in [9] and in test [5] was over 100 µM in each case. Further, the TGI in [6] and in [7] was over 100 µM in each case.

As for `C1CNCCNCCNCCN1`, the TGI in [8], in test [1], in test [2], in [4], in test [9] and in test [6] was over 100 µM throughout. This compound also had a TGI in test [7] of over 100 µM.

Turning to `COc1ccc(C(=O)C(c2ccc(OC)cc2)C2(O)C(=O)Nc3c(C)cc(Cl)cc32)cc1` (stereo unspecified), the TGI in [8] is 80.4 µM; in [1] it was over 100 µM; in test [2], over 100 µM; in test [3], over 100 µM; in test [4], 54.5 µM; in test [9], over 100 µM. Also, the TGI in test [5], in test [6] and in [7] was over 100 µM each time.

As for `Nc1ccc(C(=O)c2ccc(N)c(Br)c2)cc1Br`, the GI50 is 0.346 µM in test [8]; 0.567 µM in test [1]; 0.518 µM in test [2]; 6.24 µM in test [3]; 0.654 µM in [4]; 0.32 µM in [9]. In addition, the GI50 in [5] was 0.747 µM; in test [6] it was 0.734 µM; in test [7], 1.47 µM. Further, the TGI in [8] was 3.73 µM; in test [1], 21.5 µM; in test [2], 46.1 µM; in [3], over 100 µM; in [4], 59.4 µM; in test [9], 72.5 µM. Besides, the TGI in test [5] was over 53.1 µM; in test [6] it was 34 µM; in test [7], over 69.9 µM.

Take `CC(C)=CC(=O)Oc1ccc([N+](=O)[O-])cc1`: the TGI in test [8], in test [1], in test [2], in test [3], in test [4] and in test [9] was over 100 µM throughout. Besides, the TGI in [5], in test [6] and in test [7] was over 100 µM each time.

For the compound `N#CCc1ccc(C(C#N)/C(CCCC(=O)Nc2cccc([N+](=O)[O-])c2)=N\NC(=O)NN)cc1` (stereo unspecified), the TGI in test [8], in test [1], in [2], in test [3], in test [4] and in test [9] was over 100 µM each time. The TGI in test [5], in test [6] and in test [7] was over 100 µM each time.

As to `CC(=O)OCSc1ncnc2c1ncn2CN1CCOCC1`, the TGI in test [8], in test [1], in test [2], in test [3], in test [4] and in test [9] was over 100 µM in each case. Moreover, the TGI in test [5], in [6] and in test [7] was over 100 µM in each case.
